Experiment [1] has as its system primary human fibroblasts derived from IPF patients (LL29 cells). The experiment in a line: Inhibition of TGF-β1-induced fibrosis (αSMA staining) in primary human fibroblasts from IPF patients. Type of experiment: cell-based. To be noted: Fibroblast, 96 h, TGF-β1 20 ng/mL, 4 days, 11-point dose-response 10 μM to 1.87 nM. An excerpt: The above synthesized compounds were screened using primary human fibroblasts (derived from IPF patients) treated with TGF-β1 to determine their ability to inhibit the fibrotic process.
Primary human fibroblasts derived from IPF patients (LL29 cells) [^1Xiaoqiu Liu, et. al., “Fibrotic Lung Fibroblasts Show Blunted Inhibition by cAMP Due to Deficient cAMP Response Element-Binding Protein Phosphorylation”, Journal of Pharmacology and Experimental Therapeutics (2005), 315(2), 678-687; ^2Watts, K. L., et. al., “RhoA signaling modulates cyclin D1 expression in human lung fibroblasts; implications for idiopathic pulmonary fibrosis”, Respiratory Research (2006), 7(1), 88] were obtained from American Type Culture Collection (ATCC) and expanded in F12 medium supplemented with 15% Fetal Bovine Serum and Penicillin/Streptomycin.
Each compound was dissolved in DMSO as a 10 mM stock and used to prepare compound source plates. Serial dilution (1:2, 11-point dose-response curves from 10 μM to 1.87 nM) and compound transfer was performed using the ECHO 550 (Labcyte, Sunnyvale, Calif.) into 384-well clear bottom assay plates (Greiner Bio-One) with appropriate DMSO backfill for a final DMSO concentration of 0.1%. LL29 cells were plated at 1,500 cells/well in 80 μl/well F12 medium supplemented with 1% Fetal Bovine Serum. One hour after addition of the cells, TGF-β1 (Peprotech; 20 ng/mL) was added to the plates to induce fibrosis (ref. 1 and 2 above). Wells treated with TGF-β1 and containing DMSO were used as controls. Cells were incubated at 37° C. and 5% CO2 for 4 days. Following incubation for 4 days, SYTOX green nucleic acid stain (Life Technologies [Thermo Fisher Scientific]) was added to the wells at a final concentration of 1 uM and incubated at room temperature for 30 min. Cells were then fixed using 4% formaldehyde (Electron Microscopy Sciences), washed 3 times with PBS followed by blocking and permeabilization using 3% Bovine Serum Albumin (BSA; Sigma) and 0.3% Triton X-100 (Sigma) in PBS. Cells were then stained with antibody specific to α-smooth muscle actin (αSMA; Abcam) (ref 1 and 2 above) in 3% Bovine Serum Albumin (BSA; Sigma) and 0.3% Triton X-100 (Sigma) in PBS, and incubated overnight at 4° C. Cells were then washed 3 times with PBS, followed by incubation with Alexa Flor-647 conjugated secondary antibody (Life Technologies [Thermo Fisher Scientific]) and DAPI at room temperature for 1 hour. Cells were then washed 3 times with PBS and plates were sealed for imaging. αSMA staining was imaged by excitation at 630 nm and emission at 665 nm and quantified using the Compartmental Analysis program on the CellInsight CX5 (Thermo Scientific). Dead or apoptotic cells were excluded from analysis based on positive SYTOX green staining. % of total cells positive for αSMA were counted in each well and normalized to the average of 11 wells treated with TGF-β1 on the same plate using Dotmatics' Studies Software. The normalized averages (fold change over untreated) of 3 replicate wells for each compound concentration were used to create dose-responses curves and EC50 values were calculated using non-linear regression curve fit in the Dotmatics' Studies Software. The EC50 values are reported.

Experiment [2] has as its system Wnt activity (Sp5-Luc reporter, SW480 colon carcinoma cells). The experiment in a line: Sp5-Luc Wnt reporter gene assay in SW480 colon carcinoma cells. Format: cell-based. To be noted: Homo sapiens; SW480 cells stably expressing Sp5-Luc reporter; 42 h incubation; BrightGlo luminescence normalized to DMSO. The source says:
The screening assay for Wnt activity is described as follows. Reporter cell lines can be generated by stably transducing cancer cell lines (e.g., colon cancer) or primary cells (e.g., IEC-6 intestinal cells) with a lentiviral construct that includes a Wnt-responsive promoter driving expression of the firefly luciferase gene.
SW480 colon carcinoma cells were transduced with a lentiviral vector expressing luciferase with a human Sp5 promoter consisting of a sequence of eight TCF/LEF binding sites. SW480 cells stably expressing the Sp5-Luc reporter gene and a hygromycin resistance gene were selected by treatment with 150 μg/ml of hygromycin for 7 days. These stably transduced SW480 cells were expanded in cell culture and used for all further screening activities. For Sp5-Luc reporter gene assays, the cells were plated at 10,000 cells/well in 96-well plates with growth medium containing 10% fetal calf serum and incubated overnight at 37° C. and 5% CO2. Each compound was dissolved in DMSO as a 10 mM stock in standard j-vials and used to prepare compound source plates in dose-response format with 3-fold serial dilutions and a 10 mM top concentration. Compound transfer from serially diluted source plates to assay plates containing the cells was accomplished using a pintool (Multimek 96, Beckman equipped with V&P Scientific FP1S50H pins) based liquid handling protocol. This protocol used a slotted pin to transfer 50 nl of compound from a source plate well to an assay plate well containing 50 μl of cells in growth medium. […] Control wells received 50 nl of DMSO treatment for normalization and calculating IC50 values. The treated cells were incubated at 37° C. and 5% CO2 for an additional forty-two hours. Following incubation, the growth medium was removed and 50 μl of BrightGlo luminescence reagent (Promega) was added to each well of the 96-well assay plates. The plates were placed on an orbital shaker for 5 min and then luminescence was quantified on the Victor3 (Perkin Elmer) plate reader. Readings were normalized to DMSO only treated cells, and normalized activities were utilized for IC50 calculations using the dose-response log (inhibitor) vs. response-variable slope (four parameters) nonlinear regression feature available in GraphPad Prism 5.0 or 6.0.
On the technique in general: A reporter such as luciferase makes a cellular process visible.

`CCCC(=O)Nc1cncc(-c2cnc3[nH]nc(-c4nc5c(-c6ccncc6)nccc5[nH]4)c3c2)c1` [Compound 121, N-(5-(3-(4-(Pyridin-4-yl)-1H-imidazo[4,5-c]pyridin-2-yl)-1H-pyrazolo[3,4-b]pyridin-5-yl)pyridin-3-yl)butyramide] displayed an EC50 in experiment [1] not below 9.99 µM. Moreover, in experiment [2], the IC50 is more than 10 µM.

On to `CCNCc1cncc(-c2cnc3[nH]nc(-c4nc5c(-c6ccccn6)nccc5[nH]4)c3c2)c1` [Compound 136, N-((5-(3-(4-(Pyridin-2-yl)-1H-imidazo[4,5-c]pyridin-2-yl)-1H-pyrazolo[3,4-b]pyridin-5-yl)pyridin-3-yl)methyl)ethanamine], for which the midpoint of the response in experiment [1], the EC50, lay at 0.009 µM. Moreover, the IC50 in experiment [2] was more than 10 µM.

`O=C(Nc1cncc(-c2cnc3[nH]nc(-c4nc5c(-c6ccccn6)nccc5[nH]4)c3c2)c1)c1ccccc1` [Compound 141, N-(5-(3-(4-(Pyridin-2-yl)-1H-imidazo[4,5-c]pyridin-2-yl)-1H-pyrazolo[3,4-b]pyridin-5-yl)pyridin-3-yl)benzamide] yielded an EC50 in experiment [1] not below 9.99 µM. The compound further gave an IC50 in experiment [2] of more than 10 µM.

Take `CCCCC(=O)Nc1cncc(-c2cnc3[nH]nc(-c4nc5c(-c6ccccn6)nccc5[nH]4)c3c2)c1` [Compound 148, N-(5-(3-(4-(Pyridin-2-yl)-1H-imidazo[4,5-c]pyridin-2-yl)-1H-pyrazolo[3,4-b]pyridin-5-yl)pyridin-3-yl)pentanamide]: it took 0.009 µM to reach a half-maximal effect in experiment [1] (EC50). Besides, the IC50 in experiment [2] was determined as 6.16 µM.

`CCC(=O)Nc1cncc(-c2cnc3[nH]nc(-c4nc5c(N6CCCCC6)nccc5[nH]4)c3c2)c1` [Compound 157, N-(5-(3-(4-(Piperidin-1-yl)-1H-imidazo[4,5-c]pyridin-2-yl)-1H-pyrazolo[3,4-b]pyridin-5-yl)pyridin-3-yl)propionamide]: the EC50 in experiment [1] worked out at 0.432 µM. This compound registered a half-inhibitory concentration (IC50) in experiment [2] of 0.148 µM.

As for `CN(C)c1cncc(-c2cnc3[nH]nc(-c4nc5c(N6CCCCC6)nccc5[nH]4)c3c2)c1` [Compound 163, N,N-Dimethyl-5-(3-(4-(piperidin-1-yl)-1H-imidazo[4,5-c]pyridin-2-yl)-1H-pyrazolo[3,4-b]pyridin-5-yl)pyridin-3-amine], the EC50 in experiment [1] was 0.009 µM. Further, the IC50 in experiment [2] came to 0.777 µM.

Regarding `CN(C)Cc1cncc(-c2cnc3[nH]nc(-c4nc5c(N6CCCCC6)nccc5[nH]4)c3c2)c1` [Compound 169, N,N-Dimethyl-1-(5-(3-(4-(piperidin-1-yl)-1H-imidazo[4,5-c]pyridin-2-yl)-1H-pyrazolo[3,4-b]pyridin-5-yl)pyridin-3-yl)methanamine], a half-maximal response in experiment [1] (EC50) required 0.888 µM. The same compound returned an IC50 in experiment [2] of 2.27 µM.

`O=C(Nc1cncc(-c2cnc3[nH]nc(-c4nc5c(N6CCCCC6)nccc5[nH]4)c3c2)c1)C1CC1` [Compound 175, N-(5-(3-(4-(Piperidin-1-yl)-1H-imidazo[4,5-c]pyridin-2-yl)-1H-pyrazolo[3,4-b]pyridin-5-yl)pyridin-3-yl)cyclopropanecarboxamide] had an EC50 in experiment [1] of 0.859 µM. Moreover, in experiment [2], it took 0.413 µM to reach half-maximal inhibition (IC50).

In experiment [1], `FC1(F)CCN(Cc2cncc(-c3cnc4[nH]nc(-c5nc6c(N7CCCCC7)nccc6[nH]5)c4c3)c2)C1` [Compound 181, 5-(5-((3,3-Difluoropyrrolidin-1-yl)methyl)pyridin-3-yl)-3-(4-(piperidin-1-yl)-1H-imidazo[4,5-c]pyridin-2-yl)-1H-pyrazolo[3,4-b]pyridine] came in with an EC50 of 1.13 µM. In experiment [2], this compound came in with a 50% inhibitory concentration (IC50) of 0.243 µM.

As for `Cc1cn(-c2nccc3[nH]c(-c4n[nH]c5ncc(-c6cncc(CN7CCCC7)c6)cc45)nc23)cn1` [Compound 196, 3-(4-(4-Methyl-1H-imidazol-1-yl)-1H-imidazo[4,5-c]pyridin-2-yl)-5-(5-(pyrrolidin-1-ylmethyl)pyridin-3-yl)-1H-pyrazolo[3,4-b]pyridine], the EC50 in experiment [1] was not below 9.99 µM. The compound further had an IC50 in experiment [2] of 0.579 µM.

In the case of `CN1CCN(c2nccc3[nH]c(-c4n[nH]c5ncc(-c6cncc(N)c6)cc45)nc23)CC1` [Compound 211, 5-(3-(4-(4-Methylpiperazin-1-yl)-1H-imidazo[4,5-c]pyridin-2-yl)-1H-pyrazolo[3,4-b]pyridin-5-yl)pyridin-3-amine], in experiment [1], the EC50 is not below 9.99 µM. The compound also had an IC50 in experiment [2] of 0.334 µM.

In experiment [1], `CN1CCN(c2nccc3[nH]c(-c4n[nH]c5ncc(-c6cncc(CN7CCCCC7)c6)cc45)nc23)CC1` [Compound 223, 3-(4-(4-Methylpiperazin-1-yl)-1H-imidazo[4,5-c]pyridin-2-yl)-5-(5-(piperidin-1-ylmethyl)pyridin-3-yl)-1H-pyrazolo[3,4-b]pyridine] showed an EC50 not below 9.99 µM. In addition, the IC50 in experiment [2] is more than 10 µM.

`Cc1ccncc1-c1cnc2[nH]nc(-c3nc4c(-c5ccsc5)nccc4[nH]3)c2c1` [Compound 239, 5-(4-Methylpyridin-3-yl)-3-(4-(thiophen-3-yl)-1H-imidazo[4,5-c]pyridin-2-yl)-1H-pyrazolo[3,4-b]pyridine] returned an EC50 in experiment [1] of 0.024 µM. The compound further came in with an IC50 in experiment [2] of 0.018 µM.

`O=C(Nc1cncc(-c2cnc3[nH]nc(-c4nc5c(-c6ccsc6)nccc5[nH]4)c3c2)c1)c1ccccc1` [Compound 245, N-(5-(3-(4-(Thiophen-3-yl)-1H-imidazo[4,5-c]pyridin-2-yl)-1H-pyrazolo[3,4-b]pyridin-5-yl)pyridin-3-yl)benzamide] gave an EC50 in experiment [1] of 0.28 µM. Further, inhibition in experiment [2] was half-maximal at 0.102 µM (IC50).

For the compound `c1ccc(CNCc2cncc(-c3cnc4[nH]nc(-c5nc6c(-c7ccsc7)nccc6[nH]5)c4c3)c2)cc1` [Compound 257, N-Benzyl-1-(5-(3-(4-(thiophen-3-yl)-1H-imidazo[4,5-c]pyridin-2-yl)-1H-pyrazolo[3,4-b]pyridin-5-yl)pyridin-3-yl)methanamine], the EC50 in experiment [1] came out at 0.244 µM. In experiment [2], the IC50 came to 0.309 µM.

In turn, `c1cc2[nH]c(-c3n[nH]c4ncc(-c5cncc(CNCC6CCCC6)c5)cc34)nc2c(-c2ccoc2)n1` [Compound 284, 1-Cyclopentyl-N-((5-(3-(4-(furan-3-yl)-1H-imidazo[4,5-c]pyridin-2-yl)-1H-pyrazolo[3,4-b]pyridin-5-yl)pyridin-3-yl)methyl)methanamine] showed an EC50 in experiment [1] of 1.18 µM. Besides, inhibition in experiment [2] was half-maximal at 0.875 µM (IC50).

In experiment [1], `CCC(=O)Nc1cncc(-c2cnc3[nH]nc(-c4nc5c(-c6cccs6)nccc5[nH]4)c3c2)c1` [Compound 287, N-(5-(3-(4-(Thiophen-2-yl)-1H-imidazo[4,5-c]pyridin-2-yl)-1H-pyrazolo[3,4-b]pyridin-5-yl)pyridin-3-yl)propionamide] displayed an EC50 of 0.578 µM. The IC50 in experiment [2] worked out at 0.0229 µM.

The EC50 is the concentration at which the effect is half-maximal. As a reminder, the IC50 is the concentration that gives 50% inhibition. A high value points to lower potency.
